Measurements published in US20170246130A1, “4-HYDROXYBENZOHYDARZIDE-A NEW CLASS OF ANGIOGENIC ENZYME THYMIDINE PHOSPHORYLASE INHIBITORS” (priority 2016, published 2017).
“Also recorded” adds a separate entry of the source.

system: mouse fibroblast cell line (3T3); test: MTT anti-proliferative assay, 3T3 cells; type: cell-based; conditions: 48 h, 3T3 cells
Procedure: (§1) Compounds found to be active in inhibiting thymidine phosphorylase were then subjected to MTT proliferation assay. Rapid proliferation is the property inherent to cancerous/tumor cells. This assay was carried out to study the effect of these compounds on proliferation of various cell lines. The cell lines which we targeted were mouse fibroblast cell line (3T3), and prostate cancer line (PC3).
(§2) Anti-proliferative activity of active compounds was evaluated by using the standard MTT (3-[4,5-dimethylthiazole-2-yl]-2,5-diphenyl-tetrazolium bromide) colorimetric assay in 96-well plate (Dimas et al., 1998).
(§3) It is a colorimetric assay that measures the reduction of MTT, by mitochondrial enzyme i.e. succinate dehydrogenase. The MTT enters into the mitochondria of cell, where it is reduced to an insoluble formazan salt (FIG. 8). The extent of MTT reduction was measured at 540 nm. As reduction of MTT can only occur in metabolically active cells, the level of activity is actually a measure of the viability of the cells (Vega-Avila and Pugsley, 2011).
(§4) Mouse fibroblast cell line 3T3 was cultured in DMEM, supplemented with 5% of FBS, 100 IU/mL of penicillin and 100 μg/mL of streptomycin, and kept at 37° C. in 5% CO2 incubator. For the preparation of cell culture, 100 μL/well of cell solution (5×10^4 cells/mL) was added into 96-well plate. The plate was incubated for overnight, and fresh medium was added after the removal of old medium. The test compounds were also added in different concentrations into the plate and plate was again incubated for 48 h. After the completion of this incubation period, 200 μL MTT (0.5 mg/mL) was added and plate was again incubated for 4 h, after this final incubation 100 μL of DMSO was added to each well. The level of MTT reduction to formazan was evaluated by change in absorbance at 540 nm using a micro plate reader (Spectra Max plus, Molecular Devices, CA, USA).

Compound | IC50 ± SD (μM), 3T3 Cell Line
O=C(N/N=C/c1ccc(O)cc1)c1ccc(O)cc1 [Compound 3, 4-Hydroxy-N′-[(E)-(4-hydroxyphenyl)methylidene]benzohydrazide] | Inactive
O=C(N/N=C/c1cccc(Cl)c1)c1ccc(O)cc1 [Compound 13, 4-Hydroxy-N′-[(E)-(3-chlorophenyl)methylidene]benzohydrazide] | Inactive
COc1ccc(/C=N/NC(=O)c2ccc(O)cc2)cc1OC [Compound 11, 4-Hydroxy-N′-[(E)-(3,4-dimethoxyphenyl)methylidene]benzohydrazide] | Inactive
COc1ccc(/C=N/NC(=O)c2ccc(O)cc2)cc1 [Compound 10, 4-Hydroxy-N′-[(E)-(4-methoxyphenyl)methylidene]benzohydrazide] | Inactive
O=C(N/N=C/c1cccc(O)c1)c1ccc(O)cc1 [Compound 2, 4-Hydroxy-N′-[(E)-(3-hydroxyphenyl)methylidene]benzohydrazide] | Inactive
COc1ccccc1/C=N/NC(=O)c1ccc(O)cc1 [Compound 9, 4-Hydroxy-N′-[(E)-(2-methoxyphenyl)methylidene]benzohydrazide] | Inactive
Cc1ccccc1/C=N/NC(=O)c1ccc(O)cc1 [Compound 16, 4-Hydroxy-N′-[(E)-(2-methylphenyl)methylidene]benzohydrazide] | Inactive

same assay, conditions: 48 h, 3T3 cells, read-out: IC50 ± SD (μM), 3T3 Cell Line

Compound | IC50
C[C@@H]1C[C@@H]([C@H](O)CC2CC(=O)NC(=O)C2)C(=O)[C@@H](C)C1 [Cyclohexamide, reference compound] | 0.26 ± 0.1 µM

same assay, conditions: Mus musculus, NIH3T3, 48 h, 3T3 cells, read-out: IC50 ± SD (μM), 3T3 Cell Line

Compound | IC50
COc1cccc(/C(C)=N/NC(=O)c2ccc(O)cc2)c1O [Compound 29, 4-Hydroxy-N′-[(E)-1-(2-hydroxy-3-methoxyphenyl)ethylidene]benzohydrazide] | 18.6 ± 0.6 µM

same assay, conditions: in comparison to cyclohexamide

Compound | inhibition of the proliferation of 3T3 cells (in words)
C/C(=N\NC(=O)c1ccc(O)cc1)c1cc(O)ccc1O [Compound 28, 4-Hydroxy-N′-[(E)-1-(2,5-dihydroxyphenyl)ethylidene]benzohydrazide] | significantly inhibit
O=C(N/N=C/c1cc(O)c(O)cc1O)c1ccc(O)cc1 [Compound 6, 4-Hydroxy-N′-[(E)-(2,4,5-trihydroxyphenyl)methylidene]benzohydrazide] | significantly inhibit
O=C(N/N=C/c1ccccc1O)c1ccc(O)cc1 [Compound 1, 4-Hydroxy-N′-[(E)-(2-hydroxyphenyl)methylidene]benzohydrazide] | significantly inhibit
CCOc1cccc(/C=N/NC(=O)c2ccc(O)cc2)c1O [Compound 21, 4-Hydroxy-N′-[(E)-(3-ethoxy-2-hydroxyphenyl)methylidene]benzohydrazide] | significantly inhibit
COc1ccc(O)c(/C=N/NC(=O)c2ccc(O)cc2)c1 [Compound 20, 4-Hydroxy-N′-[(E)-(2-hydroxy-5-methoxyphenyl)methylidene]benzohydrazide] | significantly inhibit
O=C(N/N=C/c1cccc(O)c1O)c1ccc(O)cc1 [Compound 4, 4-Hydroxy-N′-[(E)-(2,3-dihydroxyphenyl)methylidene]benzohydrazide] | significantly inhibit
COc1cccc(/C(C)=N/NC(=O)c2ccc(O)cc2)c1O [Compound 29, 4-Hydroxy-N′-[(E)-1-(2-hydroxy-3-methoxyphenyl)ethylidene]benzohydrazide] | significantly inhibit

system: prostate cancer line (PC3); test: MTT anti-proliferative assay, PC3 cells; type: cell-based; conditions: Homo sapiens, PC-3, PC3 cells, read-out: IC50 ± SD (μM), PC3 Cell Line
Procedure: as §1, §2, §3, §4

Compound | IC50
O=C(N/N=C/c1ccccc1O)c1ccc(O)cc1 [Compound 1, 4-Hydroxy-N′-[(E)-(2-hydroxyphenyl)methylidene]benzohydrazide] | 7.58 ± 0.462 µM
CCOc1cccc(/C=N/NC(=O)c2ccc(O)cc2)c1O [Compound 21, 4-Hydroxy-N′-[(E)-(3-ethoxy-2-hydroxyphenyl)methylidene]benzohydrazide] | 6.54 ± 0.278 µM
COc1ccc(O)c(/C=N/NC(=O)c2ccc(O)cc2)c1 [Compound 20, 4-Hydroxy-N′-[(E)-(2-hydroxy-5-methoxyphenyl)methylidene]benzohydrazide] | 10.5 ± 0.551 µM
O=C(N/N=C/c1cccc(O)c1O)c1ccc(O)cc1 [Compound 4, 4-Hydroxy-N′-[(E)-(2,3-dihydroxyphenyl)methylidene]benzohydrazide] | 7.61 ± 0.49 µM
COc1cccc(/C(C)=N/NC(=O)c2ccc(O)cc2)c1O [Compound 29, 4-Hydroxy-N′-[(E)-1-(2-hydroxy-3-methoxyphenyl)ethylidene]benzohydrazide] | 8.48 ± 0.592 µM

same assay, conditions: PC3 cells

Compound | IC50 ± SD (μM), PC3 Cell Line
C/C(=N\NC(=O)c1ccc(O)cc1)c1cc(O)ccc1O [Compound 28, 4-Hydroxy-N′-[(E)-1-(2,5-dihydroxyphenyl)ethylidene]benzohydrazide] | Inactive
O=C(N/N=C/c1cc(O)c(O)cc1O)c1ccc(O)cc1 [Compound 6, 4-Hydroxy-N′-[(E)-(2,4,5-trihydroxyphenyl)methylidene]benzohydrazide] | Inactive
O=C(N/N=C/c1ccc(O)cc1)c1ccc(O)cc1 [Compound 3, 4-Hydroxy-N′-[(E)-(4-hydroxyphenyl)methylidene]benzohydrazide] | Inactive
O=C(N/N=C/c1cccc(Cl)c1)c1ccc(O)cc1 [Compound 13, 4-Hydroxy-N′-[(E)-(3-chlorophenyl)methylidene]benzohydrazide] | Inactive
COc1ccc(/C=N/NC(=O)c2ccc(O)cc2)cc1OC [Compound 11, 4-Hydroxy-N′-[(E)-(3,4-dimethoxyphenyl)methylidene]benzohydrazide] | Inactive
COc1ccc(/C=N/NC(=O)c2ccc(O)cc2)cc1 [Compound 10, 4-Hydroxy-N′-[(E)-(4-methoxyphenyl)methylidene]benzohydrazide] | Inactive
O=C(N/N=C/c1cccc(O)c1)c1ccc(O)cc1 [Compound 2, 4-Hydroxy-N′-[(E)-(3-hydroxyphenyl)methylidene]benzohydrazide] | Inactive
COc1ccccc1/C=N/NC(=O)c1ccc(O)cc1 [Compound 9, 4-Hydroxy-N′-[(E)-(2-methoxyphenyl)methylidene]benzohydrazide] | Inactive
Cc1ccccc1/C=N/NC(=O)c1ccc(O)cc1 [Compound 16, 4-Hydroxy-N′-[(E)-(2-methylphenyl)methylidene]benzohydrazide] | Inactive

same assay, conditions: PC3 cells, read-out: IC50 ± SD (μM), PC3 Cell Line

IC50 | Compound
0.91 ± 0.1 µM | COc1cccc2c1C(=O)c1c(O)c3c(c(O)c1C2=O)C[C@@](O)(C(=O)CO)C[C@@H]3O[C@H]1C[C@H](N)[C@H](O)[C@H](C)O1 [Doxorubucin, reference compound]

same assay, conditions: in comparison of doxorubucin

Compound | inhibition of the proliferation of PC3 cancer cells (in words)
O=C(N/N=C/c1ccccc1O)c1ccc(O)cc1 [Compound 1, 4-Hydroxy-N′-[(E)-(2-hydroxyphenyl)methylidene]benzohydrazide] | significantly inhibit
CCOc1cccc(/C=N/NC(=O)c2ccc(O)cc2)c1O [Compound 21, 4-Hydroxy-N′-[(E)-(3-ethoxy-2-hydroxyphenyl)methylidene]benzohydrazide] | significantly inhibit
COc1ccc(O)c(/C=N/NC(=O)c2ccc(O)cc2)c1 [Compound 20, 4-Hydroxy-N′-[(E)-(2-hydroxy-5-methoxyphenyl)methylidene]benzohydrazide] | significantly inhibit
O=C(N/N=C/c1cccc(O)c1O)c1ccc(O)cc1 [Compound 4, 4-Hydroxy-N′-[(E)-(2,3-dihydroxyphenyl)methylidene]benzohydrazide] | significantly inhibit
COc1cccc(/C(C)=N/NC(=O)c2ccc(O)cc2)c1O [Compound 29, 4-Hydroxy-N′-[(E)-1-(2-hydroxy-3-methoxyphenyl)ethylidene]benzohydrazide] | significantly inhibit

target: T1, thymidine phosphorylase (E. coli) (Escherichia coli, UniProt P07650); test: In-vitro thymidine phosphorylase inhibition assay (spectrophotometric); type: biochemical; conditions: recombinant E. coli TP, thymidine substrate, pH 7.0, 30° C., 290 nm
T1 construct: purchased Sigma Aldrich, USA; host or cells: Escherichia coli
T1 sequence (P07650 whole entry): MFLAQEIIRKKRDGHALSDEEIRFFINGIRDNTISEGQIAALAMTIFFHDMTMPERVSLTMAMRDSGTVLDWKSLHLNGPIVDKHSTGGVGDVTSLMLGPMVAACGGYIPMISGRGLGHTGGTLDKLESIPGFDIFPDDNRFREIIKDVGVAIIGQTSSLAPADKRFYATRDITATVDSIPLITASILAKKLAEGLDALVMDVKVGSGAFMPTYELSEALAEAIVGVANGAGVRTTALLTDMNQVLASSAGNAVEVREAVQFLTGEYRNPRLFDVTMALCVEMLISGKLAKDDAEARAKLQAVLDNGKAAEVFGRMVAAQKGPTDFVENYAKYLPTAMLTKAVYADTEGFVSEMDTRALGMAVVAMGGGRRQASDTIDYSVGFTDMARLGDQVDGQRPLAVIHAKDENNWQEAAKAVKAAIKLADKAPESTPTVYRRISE
Procedure: In vitro studies on thymidine phosphorylase were carried out in 96-well microtiter plate using Spectra Max-340 and Spectra Max-384 spectrophotometers (Molecular Devices, CA, USA). Deionized water used for buffer preparation was collected by Simplicity Water Purification System (Milipore).
Since human TP is not commercially available, we used commercially available recombinant E. coli TP (expressed in Escherichia coli) enzyme. Primary sequence of TP is mostly conserved throughout the evolution as mammalian TP share 39% sequence similarity with TP of E. coli. The mammalian enzyme also shared 65-70% similarity with the active site residues of E. coli TP enzyme (Bronckaers et al., 2009). Assay for thymidine phosphorylase inhibition was performed spectrophotometrically, following method of Bera et al. with some modifications (Bera et al., 2013).
The reaction catalyzed by thymidine phosphorylase involves reversible phosphorolysis of thymidine (FIG. 1), to thymine and 2-deoxyribose-1-phosphate (Bronckaers et al., 2009).
Reaction mixture contained 150 μL of potassium phosphate buffer (pH 7.0, 50 mM), 20 µL of enzyme (0.058 U/well) and 10 μL of test compound (0.5 mM in dimethylsulfoxide). The reaction mixture was incubated for 10 min at 30° C.
The enzyme inhibitory activities were calculated using the following formula:
Percent Inhibition=100−(O.D. of test/O.D. of control)×100
Where test is the enzyme activity with sample, and control is the enzyme activity without sample, and O.D. is optical density.
The IC50 of the compounds was calculated using EZ-Fit Enzyme Kinetic Program (Perrella Scientific Inc., Amhrest, U.S.A.).

Compound | IC50 (μM ± S.E.M.), thymidine phosphorylase inhibition
O=C(N/N=C/c1c(O)cc(O)cc1O)c1ccc(O)cc1 [Compound 7, 4-Hydroxy-N′-[(E)-(2,4,6-trihydroxyphenyl)methylidene]benzohydrazide] | Inactive
O=C(N/N=C/c1ccc(O)c(O)c1O)c1ccc(O)cc1 [Compound 8, 4-Hydroxy-N′-[(E)-(2,3,4-trihydroxyphenyl)methylidene]benzohydrazide] | Inactive
CSc1ccc(/C=N/NC(=O)c2ccc(O)cc2)cc1 [Compound 18] | unable to inhibit the enzyme; also recorded: Inactive
O=C(N/N=C/c1ccc(Cl)cc1Cl)c1ccc(O)cc1 [Compound 15, 4-Hydroxy-N′-[(E)-(2,4-dichlorophenyl)methylidene]benzohydrazide] | Inactive
C/C(=N\NC(=O)c1ccc(O)cc1)c1ccccc1O [Compound 25, 4-Hydroxy-N′-[(E)-1-(2-Hydroxyphenyl)ethylidene]benzohydrazide] | Inactive
O=C(N/N=C/c1cc(Cl)ccc1O)c1ccc(O)cc1 [Compound 23, 4-Hydroxy-N′-[(E)-(5-chloro-2-hydroxyphenyl)methylidene]benzohydrazide] | Inactive
C/C(=N\NC(=O)c1ccc(O)cc1)c1ccc(O)cc1O [Compound 26, 4-Hydroxy-N′-[(E)-1-(2,4-dihydroxyphenyl)ethylidene]benzohydrazide] | Inactive
CN(C)c1ccc(/C=N/NC(=O)c2ccc(O)cc2)cc1 [Compound 17, 4-Hydroxy-N′-[(E)-[4-dimethylaminophenyl]methylidene]benzohydrazide] | unable to inhibit the enzyme; also recorded: Inactive
O=C(N/N=C/c1cc(Br)ccc1O)c1ccc(O)cc1 [Compound 22, 4-Hydroxy-N′-[(E)-(5-bromo-2-hydroxyphenyl)methylidene]benzohydrazide] | Inactive

same assay, conditions: recombinant E. coli TP, thymidine substrate, pH 7.0, 30° C., 290 nm; read-out: IC50 (μM ± S.E.M.), thymidine phosphorylase inhibition

Compound | IC50
C/C(=N\NC(=O)c1ccc(O)cc1)c1cc(O)ccc1O [Compound 28, 4-Hydroxy-N′-[(E)-1-(2,5-dihydroxyphenyl)ethylidene]benzohydrazide] | 183.4 ± 0.9 µM
O=C(N/N=C/c1cc(O)c(O)cc1O)c1ccc(O)cc1 [Compound 6, 4-Hydroxy-N′-[(E)-(2,4,5-trihydroxyphenyl)methylidene]benzohydrazide] | 208 ± 0.9 µM
O=C(N/N=C/c1ccccc1O)c1ccc(O)cc1 [Compound 1, 4-Hydroxy-N′-[(E)-(2-hydroxyphenyl)methylidene]benzohydrazide] | 189.1 ± 0.1 µM
O=C(N/N=C/c1ccc(O)cc1)c1ccc(O)cc1 [Compound 3, 4-Hydroxy-N′-[(E)-(4-hydroxyphenyl)methylidene]benzohydrazide] | 199.4 ± 0.4 µM
O=C(N/N=C/c1cccc(Cl)c1)c1ccc(O)cc1 [Compound 13, 4-Hydroxy-N′-[(E)-(3-chlorophenyl)methylidene]benzohydrazide] | 160.3 ± 1 µM
COc1ccc(/C=N/NC(=O)c2ccc(O)cc2)cc1OC [Compound 11, 4-Hydroxy-N′-[(E)-(3,4-dimethoxyphenyl)methylidene]benzohydrazide] | 204 ± 3 µM
COc1ccc(/C=N/NC(=O)c2ccc(O)cc2)cc1 [Compound 10, 4-Hydroxy-N′-[(E)-(4-methoxyphenyl)methylidene]benzohydrazide] | 186 ± 2 µM
O=C(N/N=C/c1cccc(O)c1)c1ccc(O)cc1 [Compound 2, 4-Hydroxy-N′-[(E)-(3-hydroxyphenyl)methylidene]benzohydrazide] | 180 ± 3 µM
COc1ccccc1/C=N/NC(=O)c1ccc(O)cc1 [Compound 9, 4-Hydroxy-N′-[(E)-(2-methoxyphenyl)methylidene]benzohydrazide] | 183.7 ± 1.5 µM
Cc1ccccc1/C=N/NC(=O)c1ccc(O)cc1 [Compound 16, 4-Hydroxy-N′-[(E)-(2-methylphenyl)methylidene]benzohydrazide] | 177.2 ± 0.5 µM
CCOc1cccc(/C=N/NC(=O)c2ccc(O)cc2)c1O [Compound 21, 4-Hydroxy-N′-[(E)-(3-ethoxy-2-hydroxyphenyl)methylidene]benzohydrazide] | 190.3 ± 0.4 µM
COc1ccc(O)c(/C=N/NC(=O)c2ccc(O)cc2)c1 [Compound 20, 4-Hydroxy-N′-[(E)-(2-hydroxy-5-methoxyphenyl)methylidene]benzohydrazide] | 172 ± 2.7 µM
O=C(N/N=C/c1cccc(O)c1O)c1ccc(O)cc1 [Compound 4, 4-Hydroxy-N′-[(E)-(2,3-dihydroxyphenyl)methylidene]benzohydrazide] | 170.6 ± 0.5 µM
COc1cccc(/C(C)=N/NC(=O)c2ccc(O)cc2)c1O [Compound 29, 4-Hydroxy-N′-[(E)-1-(2-hydroxy-3-methoxyphenyl)ethylidene]benzohydrazide] | 174.2 ± 1 µM
